Experimental findings from ChEMBL document CHEMBL6134870 (J Med Chem, 2025) are described below.

Series [1] can be described thus: Cytotoxicity against BoNT/A treated human iPSC cells assessed as cell rounding at 100 uM incubated for 7.5 hrs by Western blot analysis. The format is toxicity, cell-based. A general note: Immunoblotting shows a protein as a band on a membrane.
The next series deals with HEK293. Description: Cytotoxicity against HEK293 cells assessed as reduction in cell viability at 2 to 128 uM incubated for 24 hrs by MTS assay. Format: toxicity, cell-based. The settings on record: human, hek293, 24 h, dose 2-128 µM. (In general: Formazan colour is commonly taken as a measure of viable cells.)
The target of series [2] is T1, Matrix metalloproteinase-19 (Homo sapiens, UniProt Q99542).
T1 sequence (Q99542 whole entry): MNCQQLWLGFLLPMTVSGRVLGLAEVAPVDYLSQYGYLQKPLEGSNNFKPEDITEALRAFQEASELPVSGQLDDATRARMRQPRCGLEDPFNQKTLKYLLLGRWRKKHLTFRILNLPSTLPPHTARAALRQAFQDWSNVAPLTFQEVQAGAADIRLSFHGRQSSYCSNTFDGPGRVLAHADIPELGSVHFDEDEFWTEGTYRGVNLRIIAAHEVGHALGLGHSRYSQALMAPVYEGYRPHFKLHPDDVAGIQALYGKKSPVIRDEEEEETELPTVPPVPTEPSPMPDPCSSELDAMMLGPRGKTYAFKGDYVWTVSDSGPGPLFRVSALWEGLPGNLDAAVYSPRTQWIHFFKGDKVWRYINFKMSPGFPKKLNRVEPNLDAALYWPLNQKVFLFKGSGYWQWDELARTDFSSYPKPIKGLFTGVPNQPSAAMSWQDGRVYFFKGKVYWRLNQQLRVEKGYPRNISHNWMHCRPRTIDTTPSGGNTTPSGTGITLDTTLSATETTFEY
Description: Inhibition of MMP-19 (unknown origin) at 25 uM. Format: toxicity.

The target in series [3] is Matrix metalloproteinase-14 (Homo sapiens, UniProt P50281). Description: Inhibition of MMP-14 (unknown origin) at 25 uM. The format is toxicity.
The conditions of series [4]: human, serum, 2 h.

Consider `FC(F)(F)c1ccc(-c2ccc3c(c2)CC(=S)N3)c(C(F)(F)F)c1`, for which the figures for the Activity entry (in series [1]; with HEK293) were “Toxic” and “Non-toxic”, respectively.

In the case of `FC(F)(F)c1ccc(-c2cc3c(cc2Cl)NC(=S)C3)c(C(F)(F)F)c1`, the result in series [2] and in series [3] was Active.

The compound `C=C=CC(=O)NCCCc1ccn2c(=O)cc(CNCc3ccc(-c4ccccc4)cc3)nc2c1O` came in with a t1/2 in series [4] of 6.4 h.

In series [4], `Cn1c(SC(=O)C(C)(C)C)cc2cc(C(=O)Nc3ccccc3)ccc21` had a t1/2 of 1.2 h.

On to `FC(F)(F)c1ccc(-c2ccc3c(c2)CC(=S)N3)c(C2CC2)c1`, for which the Activity result in series [1] is reported as “Toxic”.
